Assay results as given in ChEMBL document CHEMBL1201862, “PubChem BioAssay data set” (2004).
The source made the active and inactive calls.

Assays:
Format in all cases: functional
[1] = target: T1, Microphthalmia-associated transcription factor (Homo sapiens, UniProt O75030); assay: TRPM1 promoter luciferase signal decrease, dose response, MITF inhibitor project, cell-based, SK-MEL-5, cherry-picked, set 3 (AID 493073)
T1 sequence (O75030 whole entry): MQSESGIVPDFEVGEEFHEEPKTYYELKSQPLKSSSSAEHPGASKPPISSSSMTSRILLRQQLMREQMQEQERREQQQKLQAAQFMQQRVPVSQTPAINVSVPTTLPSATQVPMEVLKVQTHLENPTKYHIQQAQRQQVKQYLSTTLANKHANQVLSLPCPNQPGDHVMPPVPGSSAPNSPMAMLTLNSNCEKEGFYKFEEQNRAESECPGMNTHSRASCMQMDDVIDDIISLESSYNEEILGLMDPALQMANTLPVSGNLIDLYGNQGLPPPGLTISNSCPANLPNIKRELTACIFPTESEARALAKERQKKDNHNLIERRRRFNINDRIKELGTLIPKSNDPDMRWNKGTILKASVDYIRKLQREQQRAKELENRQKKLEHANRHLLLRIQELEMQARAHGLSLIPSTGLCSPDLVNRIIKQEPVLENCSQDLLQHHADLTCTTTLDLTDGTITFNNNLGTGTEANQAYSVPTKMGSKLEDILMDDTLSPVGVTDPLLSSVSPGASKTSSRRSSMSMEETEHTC

[2] = target: Intestinal-type alkaline phosphatase (Homo sapiens, UniProt P09923); assay: activation of human intestinal alkaline phosphatase – biochemical, dose response (AID 488873)
Chain of Intestinal-type alkaline phosphatase (P09923 whole entry): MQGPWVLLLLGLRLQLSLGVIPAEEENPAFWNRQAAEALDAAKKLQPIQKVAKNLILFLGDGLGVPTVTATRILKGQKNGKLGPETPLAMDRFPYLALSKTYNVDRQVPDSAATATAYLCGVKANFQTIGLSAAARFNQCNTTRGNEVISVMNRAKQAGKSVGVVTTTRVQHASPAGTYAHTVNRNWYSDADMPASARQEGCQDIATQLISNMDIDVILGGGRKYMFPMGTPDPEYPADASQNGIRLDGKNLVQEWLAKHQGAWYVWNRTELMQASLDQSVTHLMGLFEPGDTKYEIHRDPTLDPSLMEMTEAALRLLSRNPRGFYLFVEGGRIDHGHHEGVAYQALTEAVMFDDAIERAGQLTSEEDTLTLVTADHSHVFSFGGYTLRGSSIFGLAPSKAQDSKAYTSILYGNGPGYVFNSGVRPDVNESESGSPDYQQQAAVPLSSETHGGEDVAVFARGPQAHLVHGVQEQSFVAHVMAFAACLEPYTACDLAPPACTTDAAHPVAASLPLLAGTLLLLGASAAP

Protein Tat = Protein Tat (Human immunodeficiency virus type 1 group M subtype B (isolate HXB2)(HIV-1), UniProt P04608);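 further: tat binding to TAR RNA read out by fluorescence polarization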
Chain of Protein Tat (P04608 whole entry): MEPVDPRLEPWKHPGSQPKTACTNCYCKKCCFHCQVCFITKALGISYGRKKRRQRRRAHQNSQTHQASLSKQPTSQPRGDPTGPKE

[3] = target: T2, Orexin/Hypocretin receptor type 1 (Homo sapiens, UniProt O43613); assay: Fluorescence-based cell-based high throughput dose response assay for antagonists of the orexin 1 receptor (OX1R; HCRTR1). [Related pubchem assays (depositor defined):AID434989, AID435008, AID463079, AID485270, AID492963, AID492964, AID492965, AID493232, AID504717, AID504718]
T2 sequence (O43613 whole entry): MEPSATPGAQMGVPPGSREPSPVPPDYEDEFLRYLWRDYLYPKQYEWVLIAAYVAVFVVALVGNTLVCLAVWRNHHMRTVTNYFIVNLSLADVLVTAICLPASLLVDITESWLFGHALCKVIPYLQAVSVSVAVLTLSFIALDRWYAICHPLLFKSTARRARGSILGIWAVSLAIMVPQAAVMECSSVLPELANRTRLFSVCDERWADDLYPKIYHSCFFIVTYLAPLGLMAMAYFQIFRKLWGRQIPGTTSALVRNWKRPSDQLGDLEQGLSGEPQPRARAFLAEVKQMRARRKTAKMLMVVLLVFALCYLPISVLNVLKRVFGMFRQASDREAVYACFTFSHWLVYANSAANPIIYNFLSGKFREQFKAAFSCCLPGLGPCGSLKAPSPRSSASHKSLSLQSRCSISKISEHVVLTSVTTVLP

[4] = target: Dual specificity protein kinase CLK2 (Homo sapiens, UniProt P49760)
[5] = target: cGMP-dependent protein kinase 1 (Homo sapiens, UniProt Q13976);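 further: value from a kinome panel screen with PRKG1 as the panel member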
[6] = target: Proto-oncogene tyrosine-protein kinase receptor Ret (Homo sapiens, UniProt P07949);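 further: measured within a kinome-wide profiling panel, RET as the panel member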
[7] = target: Ribosomal protein S6 kinase beta-1 (Homo sapiens, UniProt P23443);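 further: measured as one member of a kinome-wide profiling panel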
[8] = target: Death-associated protein kinase 3 (Homo sapiens, UniProt O43293);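 further: measured as one member of a kinome-wide profiling panel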
Chain of Death-associated protein kinase 3 (O43293 whole entry): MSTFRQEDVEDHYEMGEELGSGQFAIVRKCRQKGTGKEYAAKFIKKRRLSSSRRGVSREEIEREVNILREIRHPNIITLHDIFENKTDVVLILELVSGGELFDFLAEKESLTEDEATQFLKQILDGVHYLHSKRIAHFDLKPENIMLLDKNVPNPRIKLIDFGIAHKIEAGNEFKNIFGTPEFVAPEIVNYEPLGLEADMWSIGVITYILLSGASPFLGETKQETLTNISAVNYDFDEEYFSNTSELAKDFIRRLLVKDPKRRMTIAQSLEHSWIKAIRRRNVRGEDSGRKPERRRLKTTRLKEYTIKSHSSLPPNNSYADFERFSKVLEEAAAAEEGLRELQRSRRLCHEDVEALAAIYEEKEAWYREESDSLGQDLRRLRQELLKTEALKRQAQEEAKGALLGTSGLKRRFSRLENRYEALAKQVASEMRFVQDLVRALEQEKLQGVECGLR

Aurora kinase A = Aurora kinase A (Homo sapiens, UniProt O14965);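 further: value from the Navigating the Kinome kinase panel profiling, panel entry STK6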
[9] = target: Serine/threonine-protein kinase PAK 1 (Homo sapiens, UniProt Q13153)
[10] = target: Fibroblast growth factor receptor 1 (Homo sapiens, UniProt P11362)
[11] = target: Tyrosine-protein kinase JAK3 (Homo sapiens, UniProt P52333)
[12] = target: Testis-specific serine/threonine-protein kinase 1 (Homo sapiens, UniProt Q9BXA7)
[13] = target: MAP/microtubule affinity-regulating kinase 3 (Homo sapiens, UniProt P27448);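 further: MARK3 affinity measured as one member of a kinome panel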
Chain of MAP/microtubule affinity-regulating kinase 3 (P27448 whole entry): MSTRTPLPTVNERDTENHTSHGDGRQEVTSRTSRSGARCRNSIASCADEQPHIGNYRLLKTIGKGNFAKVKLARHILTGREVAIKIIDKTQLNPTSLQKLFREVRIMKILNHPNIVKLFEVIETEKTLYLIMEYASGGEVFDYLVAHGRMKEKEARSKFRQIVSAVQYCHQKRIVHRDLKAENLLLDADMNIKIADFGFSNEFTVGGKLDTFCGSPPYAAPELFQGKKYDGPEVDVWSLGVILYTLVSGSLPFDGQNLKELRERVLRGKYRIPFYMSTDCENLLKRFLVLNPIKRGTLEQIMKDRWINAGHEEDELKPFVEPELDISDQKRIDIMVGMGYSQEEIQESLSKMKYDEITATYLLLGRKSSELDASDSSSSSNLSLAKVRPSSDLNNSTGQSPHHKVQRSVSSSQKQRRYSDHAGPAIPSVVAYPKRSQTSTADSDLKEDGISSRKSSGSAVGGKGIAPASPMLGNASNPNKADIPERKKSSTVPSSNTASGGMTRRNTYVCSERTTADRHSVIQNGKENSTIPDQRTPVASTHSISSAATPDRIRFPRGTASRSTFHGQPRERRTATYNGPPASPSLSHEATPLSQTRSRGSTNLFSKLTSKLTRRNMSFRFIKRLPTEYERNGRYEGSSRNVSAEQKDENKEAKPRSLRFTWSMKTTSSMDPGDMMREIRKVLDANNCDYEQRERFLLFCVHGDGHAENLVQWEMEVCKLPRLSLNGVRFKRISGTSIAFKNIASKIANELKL

[14] = target: Proto-oncogene tyrosine-protein kinase Src (Homo sapiens, UniProt P12931);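 further: SRC entry within a kinome-wide kinase profiling panel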
[15] = target: Insulin-like growth factor 1 receptor (Homo sapiens, UniProt P08069); assay: Navigating the Kinome. Panel member name: IGF1R
Chain of Insulin-like growth factor 1 receptor (P08069 31-736 limits assumed): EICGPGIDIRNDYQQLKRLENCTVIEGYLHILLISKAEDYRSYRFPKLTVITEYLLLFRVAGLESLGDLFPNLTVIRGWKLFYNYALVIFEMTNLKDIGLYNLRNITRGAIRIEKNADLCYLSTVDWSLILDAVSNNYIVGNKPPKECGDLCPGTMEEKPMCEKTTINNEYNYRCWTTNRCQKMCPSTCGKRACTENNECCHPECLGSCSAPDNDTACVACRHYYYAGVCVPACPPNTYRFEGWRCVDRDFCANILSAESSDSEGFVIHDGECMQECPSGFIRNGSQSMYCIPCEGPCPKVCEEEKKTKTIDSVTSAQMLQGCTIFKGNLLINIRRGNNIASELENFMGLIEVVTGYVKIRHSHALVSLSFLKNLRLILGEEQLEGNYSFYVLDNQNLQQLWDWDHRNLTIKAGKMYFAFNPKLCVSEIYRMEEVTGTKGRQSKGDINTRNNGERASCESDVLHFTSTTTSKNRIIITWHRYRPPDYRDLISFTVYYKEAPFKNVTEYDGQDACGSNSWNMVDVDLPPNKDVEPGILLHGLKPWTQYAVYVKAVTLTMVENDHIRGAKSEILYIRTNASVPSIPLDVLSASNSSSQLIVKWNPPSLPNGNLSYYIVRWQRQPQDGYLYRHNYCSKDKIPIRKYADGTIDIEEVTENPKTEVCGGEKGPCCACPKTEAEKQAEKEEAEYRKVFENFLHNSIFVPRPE
Chain of Insulin-like growth factor 1 receptor (P08069 741-1367 limits assumed): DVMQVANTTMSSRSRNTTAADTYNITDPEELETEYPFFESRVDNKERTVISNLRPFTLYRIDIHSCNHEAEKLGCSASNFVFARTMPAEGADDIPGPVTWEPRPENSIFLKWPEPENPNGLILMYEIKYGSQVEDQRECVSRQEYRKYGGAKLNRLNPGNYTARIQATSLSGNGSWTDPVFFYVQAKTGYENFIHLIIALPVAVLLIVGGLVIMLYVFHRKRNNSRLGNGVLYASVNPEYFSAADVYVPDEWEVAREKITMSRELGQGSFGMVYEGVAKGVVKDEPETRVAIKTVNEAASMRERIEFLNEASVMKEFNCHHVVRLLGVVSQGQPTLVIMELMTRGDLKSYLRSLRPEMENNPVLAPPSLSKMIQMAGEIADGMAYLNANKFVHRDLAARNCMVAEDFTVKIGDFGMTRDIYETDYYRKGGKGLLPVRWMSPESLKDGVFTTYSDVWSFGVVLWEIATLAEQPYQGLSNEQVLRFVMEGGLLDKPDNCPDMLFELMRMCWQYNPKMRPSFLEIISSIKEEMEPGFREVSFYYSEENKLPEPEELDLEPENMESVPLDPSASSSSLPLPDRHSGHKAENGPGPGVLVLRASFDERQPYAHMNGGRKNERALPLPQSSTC

[16] = target: Protein kinase C iota type (Homo sapiens, UniProt P41743);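 further: measured within a kinome-wide kinase panel, PRKCI as panel member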
Chain of Protein kinase C iota type (P41743 whole entry): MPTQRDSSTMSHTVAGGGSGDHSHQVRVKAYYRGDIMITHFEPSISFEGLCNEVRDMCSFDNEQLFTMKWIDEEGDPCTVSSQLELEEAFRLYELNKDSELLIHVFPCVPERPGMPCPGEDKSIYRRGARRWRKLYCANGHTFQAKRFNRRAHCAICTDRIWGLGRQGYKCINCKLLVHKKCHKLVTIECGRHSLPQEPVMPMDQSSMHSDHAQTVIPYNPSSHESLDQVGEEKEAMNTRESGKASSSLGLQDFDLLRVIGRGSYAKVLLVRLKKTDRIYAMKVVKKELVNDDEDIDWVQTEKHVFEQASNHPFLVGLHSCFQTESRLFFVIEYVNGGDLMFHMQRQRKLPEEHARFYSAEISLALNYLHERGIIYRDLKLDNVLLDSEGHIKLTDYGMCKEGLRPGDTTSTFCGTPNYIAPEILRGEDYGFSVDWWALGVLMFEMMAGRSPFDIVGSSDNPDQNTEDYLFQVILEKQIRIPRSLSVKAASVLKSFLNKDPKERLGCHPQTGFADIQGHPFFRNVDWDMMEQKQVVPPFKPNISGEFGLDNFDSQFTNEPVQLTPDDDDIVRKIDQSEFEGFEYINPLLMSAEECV

[17] = target: Maternal embryonic leucine zipper kinase (Homo sapiens, UniProt Q14680)
[18] = target: Leucine-rich repeat serine/threonine-protein kinase 2 (Homo sapiens, UniProt Q5S007);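 further: value from a broad kinome-wide panel profiling study in which LRRK2 was one of the kinases tested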
Aurora kinase B = Aurora kinase B (Homo sapiens, UniProt Q96GD4)
[19] = target: Homeodomain-interacting protein kinase 4 (Homo sapiens, UniProt Q8NE63)
Chain of Homeodomain-interacting protein kinase 4 (Q8NE63 whole entry): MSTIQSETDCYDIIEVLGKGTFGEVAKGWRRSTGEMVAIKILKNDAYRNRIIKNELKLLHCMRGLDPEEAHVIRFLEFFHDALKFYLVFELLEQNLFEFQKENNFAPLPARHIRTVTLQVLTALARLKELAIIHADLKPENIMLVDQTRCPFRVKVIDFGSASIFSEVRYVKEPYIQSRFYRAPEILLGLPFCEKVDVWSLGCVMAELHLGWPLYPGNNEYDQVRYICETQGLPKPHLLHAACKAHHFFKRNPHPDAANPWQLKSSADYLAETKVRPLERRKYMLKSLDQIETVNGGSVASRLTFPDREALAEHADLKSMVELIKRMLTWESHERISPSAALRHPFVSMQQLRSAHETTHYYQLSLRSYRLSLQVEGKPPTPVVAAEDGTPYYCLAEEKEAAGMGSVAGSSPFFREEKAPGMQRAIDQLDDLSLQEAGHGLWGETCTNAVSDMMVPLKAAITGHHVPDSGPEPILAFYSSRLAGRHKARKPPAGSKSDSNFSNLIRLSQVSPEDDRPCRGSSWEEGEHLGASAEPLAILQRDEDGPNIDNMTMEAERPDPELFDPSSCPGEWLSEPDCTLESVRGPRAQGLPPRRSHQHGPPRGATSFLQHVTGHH

[20] = target: Cyclin-dependent kinase 7 (Homo sapiens, UniProt P50613);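 further: value comes from a kinome-wide kinase profiling panel in which CDK7 is one member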
[21] = target: STE20-like serine/threonine-protein kinase (Homo sapiens, UniProt Q9H2G2)
[22] = target: Serine/threonine-protein kinase PLK1 (Homo sapiens, UniProt P53350);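 further: PLK1 measured as one member of a kinome-wide profiling panel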
[23] = target: BDNF/NT-3 growth factors receptor (Homo sapiens, UniProt Q16620);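 further: NTRK2 measured as one member of a broad kinome-wide kinase profiling panel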
[24] = target: Mitogen-activated protein kinase 14 (Homo sapiens, UniProt Q16539);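 further: part of a kinome-wide panel, MAPK14 entry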
[25] = target: Serine/threonine-protein kinase 3 (Homo sapiens, UniProt Q13188);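 further: measured as one member of a kinome-wide kinase panel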
Chain of Serine/threonine-protein kinase 3 (Q13188 whole entry): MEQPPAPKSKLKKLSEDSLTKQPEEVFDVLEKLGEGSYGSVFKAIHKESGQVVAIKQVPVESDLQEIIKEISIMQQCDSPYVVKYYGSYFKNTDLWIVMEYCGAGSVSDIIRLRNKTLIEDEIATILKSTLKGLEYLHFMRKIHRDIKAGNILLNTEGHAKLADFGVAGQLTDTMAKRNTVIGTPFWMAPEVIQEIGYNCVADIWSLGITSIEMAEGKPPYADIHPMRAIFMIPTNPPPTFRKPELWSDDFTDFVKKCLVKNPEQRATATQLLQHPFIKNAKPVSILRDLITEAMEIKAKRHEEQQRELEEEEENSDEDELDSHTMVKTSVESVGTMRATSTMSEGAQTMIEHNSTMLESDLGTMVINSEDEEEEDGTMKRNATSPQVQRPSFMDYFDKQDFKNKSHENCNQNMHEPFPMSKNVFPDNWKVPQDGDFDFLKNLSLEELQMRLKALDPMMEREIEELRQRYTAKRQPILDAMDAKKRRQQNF

Question: With `C=CCNC1=C(Cl)C(=O)c2ccccc2C1=O` as the compound, how does the AC50 [1] read?
Answer: 4060 nM (active)

Question: Which EC50 [2] does the source give for `CS(=O)(=O)c1ccc2c(c1)SC1=NC(=O)/C(=C/c3ccc(O)c(O)c3)C(=N)N12` here?
Answer: 61000 nM (active)

Question: `CCOC(=O)C(C(=O)OCC)c1cc(Br)c2noc3c2c1C(=O)c1ccccc1-3` was tested. Which IC50 (Protein Tat) did it give?
Answer: 6440 nM (inconclusive)

Question: Which IC50 [3] does the source give for `CN(C)c1ccc(-c2nnc(-c3cccs3)o2)cc1` here?
Answer: > 49700 nM (inactive)

Question: What does the source list for `COc1ccc(C(=O)Nc2n[nH]c3ccc(-c4cn(Cc5ccccc5)nn4)cc23)cc1OC`?
Answer: Ki [4]: 63.1 nM (active); Ki [5]: 631 nM (active); Ki [6]: 126 nM (active); Ki [7]: 100 nM (active); Ki [8]: 31.6 nM (active); Ki (Aurora kinase A): 398 nM (active); Ki [9]: > 10000 nM (inactive); Ki [10]: 501 nM (active); Ki [11]: 1000 nM (active); Ki [12]: > 1580 nM (inactive); Ki [13]: 63.1 nM (active); Ki [14]: 316 nM (active); Ki [15]: > 2000 nM (inactive); Ki [16]: 3980 nM (active); Ki [17]: 398 nM (active); Ki [18]: 501 nM (active); Ki (Aurora kinase B): 200 nM (active); Ki [19]: 1000 nM (active); Ki [20]: 126 nM (active); Ki [21]: 2000 nM (active); Ki [22]: > 7940 nM (inactive); Ki [23]: > 5010 nM (inactive); Ki [24]: > 3980 nM (inactive); Ki [25]: 794 nM (active)
